Measurements: US6355799B1, “Substituted benzene compounds, process for their preparation, and herbicidal and defoliant compositions containing them” (ISK Americas Incorporated, priority 1997, dated 2002)

Legend:
Type in all cases: in vivo
[1] = system: large crabgrass (Digitaria sanguinalis, DIGSA); assay: Post-emerge test, greenhouse herbicide activity screening; conditions: Digitaria sanguinalis, post-emergence, 336 h, post-emerge, phytotoxicity rating 0-100 at 14 days after application, read-out: Post-emerge Herbicidal Activity DIGSA; for pest or weed control at 63 g/ha: 63 g ai/ha; for pest or weed control at 250 g/ha: 250 g ai/ha
Method in brief: (§1)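 Compounds in acetone were track-sprayed at 187 l/ha, 15–1000 g ai/ha, onto sandy loam pots. Pre-emerge seeds were sown one day before spraying, with surface watering afterwards. Post-emerge plants were at the 2–3 leaf stage and sprayed with 0.25% v/v non-ionic surfactant. Injury was rated 0–100 at 14 days.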

[2] = system: velvetleaf (Abutilon theophrasti, ABUTH); assay: as above; conditions: Abutilon theophrasti, post-emergence, 336 h, post-emerge, phytotoxicity rating 0-100 at 14 days after application, read-out: Post-emerge Herbicidal Activity ABUTH; for pest or weed control at 63 g/ha: 63 g ai/ha; for pest or weed control at 250 g/ha: 250 g ai/ha
Method in brief: as §1

[3] = system: ivyleaf morningglory (Ipomoea hederacea, IPOHE); assay: as above; conditions: Ipomoea, post-emergence, 336 h, post-emerge, phytotoxicity rating 0-100 at 14 days after application, read-out: Post-emerge Herbicidal Activity IPOHE; for pest or weed control at 63 g/ha: 63 g ai/ha; for pest or weed control at 250 g/ha: 250 g ai/ha
Method in brief: as §1

[4] = system: barnyardgrass (Echinochloa crus-galli, ECHCG); assay: as above; conditions: Echinochloa crus-galli, post-emergence, 336 h, post-emerge, phytotoxicity rating 0-100 at 14 days after application, read-out: Post-emerge Herbicidal Activity ECHCG; for pest or weed control at 63 g/ha: 63 g ai/ha; for pest or weed control at 250 g/ha: 250 g ai/ha
Method in brief: as §1

[5] = system: lambsquarters (Chenopodium album, CHEAL); assay: as above; conditions: Chenopodium album, post-emergence, 336 h, post-emerge, phytotoxicity rating 0-100 at 14 days after application, read-out: Post-emerge Herbicidal Activity CHEAL; for pest or weed control at 63 g/ha: 63 g ai/ha; for pest or weed control at 250 g/ha: 250 g ai/ha
Method in brief: as §1

[6] = system: redroot pigweed (Amaranthus retroflexus, AMARE); assay: as above; conditions: Amaranthus retroflexus, post-emergence, 336 h, post-emerge, phytotoxicity rating 0-100 at 14 days after application, read-out: Post-emerge Herbicidal Activity AMARE; for pest or weed control at 63 g/ha: 63 g ai/ha; for pest or weed control at 250 g/ha: 250 g ai/ha
Method in brief: as §1

[7] = system: green foxtail (Setaria viridis, SETVI); assay: as above; conditions: Setaria viridis, post-emergence, 336 h, post-emerge, phytotoxicity rating 0-100 at 14 days after application, read-out: Post-emerge Herbicidal Activity SETVI; for pest or weed control at 63 g/ha: 63 g ai/ha; for pest or weed control at 250 g/ha: 250 g ai/ha
Method in brief: as §1

[8] = system: sicklepod (Cassia obtusifolia, CASOB); assay: as above; conditions: Senna obtusifolia, post-emergence, 336 h, post-emerge, phytotoxicity rating 0-100 at 14 days after application, read-out: Post-emerge Herbicidal Activity CASOB; for pest or weed control at 63 g/ha: 63 g ai/ha; for pest or weed control at 250 g/ha: 250 g ai/ha
Method in brief: as §1

[9] = system: large crabgrass (Digitaria sanguinalis, DIGSA); assay: Pre-emerge test, greenhouse herbicide activity screening; conditions: Digitaria sanguinalis, pre-emergence, 336 h, pre-emerge, phytotoxicity rating 0-100 at 14 days after application, read-out: Pre-emerge Herbicidal Activity DIGSA; for pest or weed control at 63 g/ha: rate 63 g ai/ha; for pest or weed control at 250 g/ha: rate 250 g ai/ha
Method in brief: (§2)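 Applied at 15–1000 g ai/ha from acetone in 187 l/ha spray volume. Post-emergence applications included 0.25% v/v non-ionic surfactant and reached plants sown 8–21 days before. Pre-emergence applications were incorporated by surface watering. Efficacy or crop damage was rated on a 0–100 scale after 14 days.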

[10] = system: ivyleaf morningglory (Ipomoea hederacea, IPOHE); assay: as above; conditions: Ipomoea, pre-emergence, 336 h, pre-emerge, phytotoxicity rating 0-100 at 14 days after application, read-out: Pre-emerge Herbicidal Activity IPOHE; for pest or weed control at 63 g/ha: rate 63 g ai/ha; for pest or weed control at 250 g/ha: rate 250 g ai/ha
Method in brief: as §2

[11] = system: barnyardgrass (Echinochloa crus-galli, ECHCG); assay: as above; conditions: Echinochloa crus-galli, pre-emergence, 336 h, pre-emerge, phytotoxicity rating 0-100 at 14 days after application, read-out: Pre-emerge Herbicidal Activity ECHCG; for pest or weed control at 63 g/ha: rate 63 g ai/ha; for pest or weed control at 250 g/ha: rate 250 g ai/ha
Method in brief: as §2

[12] = system: sicklepod (Cassia obtusifolia, CASOB); assay: as above; conditions: Senna obtusifolia, pre-emergence, 336 h, pre-emerge, phytotoxicity rating 0-100 at 14 days after application, read-out: Pre-emerge Herbicidal Activity CASOB; for pest or weed control at 63 g/ha: rate 63 g ai/ha; for pest or weed control at 250 g/ha: rate 250 g ai/ha
Method in brief: as §2

Row | SMILES | pest or weed control at 63 g/ha [1] | pest or weed control at 250 g/ha [1] | pest or weed control at 63 g/ha [2] | pest or weed control at 250 g/ha [2] | pest or weed control at 63 g/ha [3] | pest or weed control at 250 g/ha [3] | pest or weed control at 63 g/ha [4] | pest or weed control at 250 g/ha [4] | pest or weed control at 250 g/ha [5] | pest or weed control at 250 g/ha [6] | pest or weed control at 250 g/ha [7] | pest or weed control at 250 g/ha [8] | pest or weed control at 63 g/ha [9] | pest or weed control at 250 g/ha [9] | pest or weed control at 63 g/ha [10] | pest or weed control at 250 g/ha [10] | pest or weed control at 63 g/ha [11] | pest or weed control at 250 g/ha [11] | pest or weed control at 63 g/ha [12] | pest or weed control at 250 g/ha [12] | other results
1 | COc1c(Cl)cc(F)c(-n2nc(C)n(C(F)F)c2=O)c1NC(=O)c1ccc2ccccc2c1 [Compound 6-15] | 30% | 60% | 100% | 100% | 100% | 100% | 40% | 70% | 100% | 100% | 85% | 100% | 80% | 100% | 70% | 40% | 50% | 80% | 70% | 80% | pest or weed control at 63 g/ha [5]: 100%; pest or weed control at 63 g/ha [6]: 100%; pest or weed control at 63 g/ha [7]: 50%; pest or weed control at 63 g/ha [8]: 100%
2 | Cc1nn(-c2c(Cl)cc(Cl)cc2NC(=O)c2ccc3ccccc3c2)c(=O)n1C(F)F [Compound 6-16] | 20% | 30% | 100% | 100% | 100% | 75% | 20% | 40% | 100% | 90% | 60% | 60% | 30% | 90% | 0% | 0% | 10% | 30% | 0% | 0% | pest or weed control at 63 g/ha [5]: 100%; pest or weed control at 63 g/ha [6]: 100%; pest or weed control at 63 g/ha [7]: 30%; pest or weed control at 63 g/ha [8]: 80%
3 | COc1c(Cl)cc(Cl)c(-n2nc(C)n(C(F)F)c2=O)c1NC(=O)c1ccc2ccccc2c1 [Compound 6-17] | 0% | 20% | 90% | 100% | 50% | 70% | 0% | 30% | 90% | 70% | 30% | 70% | 30% | 99% | 0% | 30% | 10% | 90% | 0% | 20% | pest or weed control at 63 g/ha [5]: 90%; pest or weed control at 63 g/ha [6]: 60%; pest or weed control at 63 g/ha [7]: 0%; pest or weed control at 63 g/ha [8]: 50%
4 | COc1c(Cl)cc(F)c(-c2nn(C)c(C(F)(F)F)c2Cl)c1NC(=O)c1ccc2ccccc2c1 [Compound 7-14] |  | 10% |  | 95% |  | 100% |  | 10% | 90% | 70% | 20% | 60% | 60% | 70% | 30% | 20% | 0% | 40% | 10% | 50% | 
